US20150290235A1, “USE OF SMALL MOLECULE INHIBITORS/ACTIVATORS IN COMBINATION WITH (DEOXY)NUCLEOSIDE OR (DEOXY)NUCLEOTIDE ANALOGS FOR TREATMENT OF CANCER AND HEMATOLOGICAL MALIGNANCIES OR VIRAL INFECTIONS” (AB SCIENCE, priority 2012, published 2015)
Like-named read-outs stand apart in the source and are kept apart here. Marks after values point to notes of the source that are not given here.

How the values were obtained:
[1] = tested on: CMT12 breast carcinoma cells; experiment: Alamar Blue cell proliferation assay, CMT12; format: cell-based, canine; details: Canis lupus familiaris, Breast carcinoma cell, 72 h, read-out: Combination IC50 (chemotherapeutic agent with fixed masitinib)
[2] = tested on: Mia Paca-2 pancreatic cancer cells; experiment: WST-1 proliferation assay, Mia Paca-2; format: cell-based, human; details: Homo sapiens
[3] = tested on: MDAMB 231 breast cancer cells; experiment: WST-1 proliferation/survival assay, MDAMB 231; format: cell-based; details: Homo sapiens, MDA-MB-231, read-out: Gemcitabine IC50
Description: (§1) Gemcitabine (Gemzar, Lilly France) was obtained as a powder and dissolved in sterile 0.9% NaCl solution and stored as aliquots at −80° C. Fresh dilutions were prepared fcr each experiment. Cell lines: Colon and prostate cancer cell lines (Dr. Juan Iovanna, INSERM U624, Marseille, France), breast and ovarian cancer cell lines (Dr. Patrice Dubreuil, UMR 599 INSERM, Marseille, France), and lung cancer cell lines (Pr. Christian Auclair, UMR 8113 CNRS) were cultured as monolayers in RPMI 1640 medium containing L-glutamine supplemented with 100 U/ml penicillin and 100 μg/ml streptomycin, and 10% v/v heat-inactivated fetal calf serum (AbCys Lot S02823S1800) under standard culture conditions (5% CO2, 95% air in humidified chamber at 37° C.). In proliferation assays, all cells were grown in medium containing 1% FCS.
(§2) Treatment was started with the addition of the respective drug. […] After 72 hours WST-1 reagent was added and incubated with the cells for 4 hours before absorbance measurement at 450 nm in an EL800 Universal Microplate Reader (Bio-Tek Instruments Inc.). Media alone was used as a blank and proliferation in the absence of compounds served as positive control (DMSO control). The new IC50 was scored and the results are representative of 3-4 experiments.

[4] = tested on: A549 NSCLC cells; experiment: WST-1 proliferation/survival assay, A549; format: cell-based; details: Homo sapiens, read-out: Gemcitabine IC50
Description: as §1, §2

[5] = tested on: LnCaP prostate cancer cells; experiment: WST-1 proliferation/survival assay, LnCaP; format: cell-based; details: Homo sapiens, read-out: Gemcitabine IC50
Description: as §1, §2

[6] = tested on: CMT27 breast carcinoma cells; experiment: Alamar Blue cell proliferation assay, CMT27; format: cell-based, canine; details: Canis lupus familiaris, Breast carcinoma cell, 72 h, read-out: Combination IC50 (chemotherapeutic agent with fixed masitinib)
[7] = tested on: Abrams osteosarcoma cells; experiment: Alamar Blue cell proliferation assay, Abrams; format: cell-based, canine; details: Canis lupus familiaris, 72 h, read-out: Combination IC50 (chemotherapeutic agent with fixed masitinib)
[8] = tested on: BT20 breast cancer cells; experiment: WST-1 proliferation/survival assay, BT20; format: cell-based; details: Homo sapiens, BT-20, read-out: Gemcitabine IC50
Description: as §1, §2

[9] = tested on: HRT118 colorectal cancer cells; experiment: WST-1 proliferation/survival assay, HRT118; format: cell-based; details: Homo sapiens, read-out: Gemcitabine IC50
Description: as §1, §2

[10] = tested on: Capan-2 pancreatic cancer cells; experiment: WST-1 proliferation assay, Capan-2; format: cell-based, human; details: Homo sapiens
Description: (§3) Cancer cell lines: Pancreatic cancer cells lines (Mia Paca-2, Panc-1, BxPC-3 and Capan-2) were obtained from Dr. Juan Iovanna (Inserm, France). Cells were maintained in RPMI (BxPC-3, Capan-2) or DMEM (Mia Paca-2, Panc-1) medium containing glutamax-1 (Lonza), supplemented with 100 U/ml penicillin/100 μg/ml streptomycin, and 10% fetal calf serum (FCS) (AbCys, Lot S02823S1800). Expression of tyrosine kinases was determined by RT-PCR using Hot Star Taq (Qiagen GmbH, Hilden, Germany) in a 2720 Thermal Cycler (Applied Biosystems).
as §2, with “control. Results” for “control (DMSO control). The new IC50 was scored and the results”, “three/four” for “3-4”

[11] = tested on: H1299 NSCLC cells; experiment: WST-1 proliferation/survival assay, H1299; format: cell-based; details: Homo sapiens, NCI-H1299, read-out: Gemcitabine IC50
Description: as §1, §2

[12] = tested on: BxPC-3 pancreatic cancer cells; experiment: WST-1 proliferation assay, BxPC-3; format: cell-based, human
Description: as §3
as §2, with “control. Results” for “control (DMSO control). The new IC50 was scored and the results”, “three/four” for “3-4”

[13] = tested on: OVCAR3 ovarian cancer cells; experiment: WST-1 proliferation/survival assay, OVCAR3; format: cell-based; details: Homo sapiens, OVCAR-3, read-out: Gemcitabine IC50
Description: as §1, §2

[14] = tested on: H1650 NSCLC cells; experiment: WST-1 proliferation/survival assay, H1650; format: cell-based; details: Homo sapiens, NCI-H1650, read-out: Gemcitabine IC50
Description: as §1, §2

[15] = tested on: Panc-1 pancreatic cancer cells; experiment: WST-1 proliferation assay, Panc-1; format: cell-based, human; details: Homo sapiens
Description: as §3
as §2, with “control. Results” for “control (DMSO control). The new IC50 was scored and the results”, “three/four” for “3-4”

[16] = tested on: DU145 prostate cancer cells; experiment: WST-1 proliferation/survival assay, DU145; format: cell-based; details: Homo sapiens, DU-145, read-out: Gemcitabine IC50
Description: as §1, §2

[17] = tested on: BT474 breast cancer cells; experiment: WST-1 proliferation/survival assay, BT474; format: cell-based; details: Homo sapiens, BT-474, read-out: Gemcitabine IC50
Description: as §1, §2

[18] = tested on: MDAMB 134 breast cancer cells; experiment: WST-1 proliferation/survival assay, MDAMB 134; format: cell-based; details: Homo sapiens, read-out: Gemcitabine IC50
Description: as §1, §2

[19] = tested on: CaCo-2 colorectal cancer cells; experiment: WST-1 proliferation/survival assay, CaCo-2; format: cell-based; details: Homo sapiens, read-out: Gemcitabine IC50
Description: as §1, §2

[20] = tested on: D17 osteosarcoma cells; experiment: Alamar Blue cell proliferation assay, D17; format: cell-based, canine; details: Canis lupus familiaris, 72 h, read-out: Combination IC50 (chemotherapeutic agent with fixed masitinib)
[21] = tested on: Mia Paca-2 pancreatic tumors; experiment: Nog-SCID mouse model of human pancreatic cancer; format: in vivo, Nog-SCID mice; details: day 56, 28 days of treatment; control 1023
[22] = tested on: C2 mastocytoma cells; experiment: Alamar Blue cell proliferation assay, C2; format: cell-based, canine; details: Canis lupus familiaris, 72 h, read-out: Combination IC50 (chemotherapeutic agent with fixed masitinib)

IC50 [1]: 10.8 µM
IC50 ([2]; MIA PaCa-2, read-out: IC50 of gemcitabine plus 5 μM masitinib): 1.5 µM
IC50 ([2]; MIA PaCa-2, read-out: IC50 of gemcitabine plus 10 μM masitinib): 0.025 µM
IC50 ([2]; Mia Paca-2, 72 hours, 1% FCS, read-out: IC50, single agent): > 10 µM
IC50 ([2]; Mia Paca-2, read-out: IC50, single agent (resistance)): > 2500 µM
IC50 [6]: 1.3 µM
IC50 [7]: 1 µM
IC50 ([10]; Capan-2, 72 h, Capan-2, 72 hours, 1% FCS, read-out: IC50, single agent): 2 to 20 µM
IC50 ([10]; Capan-2, read-out: IC50 of gemcitabine plus 5 μM masitinib, Capan-2, masitinib overnight before gemcitabine): 2 µM
IC50 ([12]; BxPC-3, 72 hours, 1% FCS, read-out: IC50, single agent): 2 to 20 µM
IC50 ([12]; Homo sapiens, BXPC-3, read-out: IC50 of gemcitabine plus 5 μM masitinib, BxPC-3, masitinib overnight before gemcitabine): 10 µM
IC50 ([12]; Homo sapiens, BXPC-3, read-out: IC50 of gemcitabine plus 10 μM masitinib, BxPC-3, masitinib overnight before gemcitabine): 10 µM
IC50 ([15]; PANC-1, read-out: IC50 of gemcitabine plus 5 μM masitinib): 8 µM
IC50 ([15]; PANC-1, read-out: IC50 of gemcitabine plus 10 μM masitinib): 1 µM
IC50 ([15]; Panc-1, 72 hours, 1% FCS, read-out: IC50, single agent): > 10 µM
IC50 ([15]; Panc-1, read-out: IC50, single agent (resistance)): > 2500 µM
IC50 [20]: 1.3 µM
IC50 [22]: > 100 µM
SMILES: Nc1ccn([C@@H]2O[C@H](CO)[C@@H](O)C2(F)F)c(=O)n1 [Gemcitabine, 4-amino-1-(2-deoxy-2,2-difluoro-β-D-erythro-pentofuranosyl)pyrimidin-2(1H)-on 2′,2′-difluoro-2′-deoxycytidine]
IC50 [3]: 100 µM
IC50 [4]: 100 µM
IC50 [5]: 25 to 100 µM
IC50 [8]: 50 µM
IC50 [9]: > 100 µM
IC50 [11]: 100 µM
IC50 [13]: 50 µM
IC50 [14]: 5 µM
IC50 [16]: 100 µM
IC50 [17]: 100 µM
IC50 [18]: 100 µM
IC50 [19]: > 100 µM
Tumor Volume, Median [21]: 662* mm^3
